Molecules are shown by their SMILES.

The subject of this assay is p62 puncta. In words: p62 puncta immunocytochemistry imaging in HeLa cells. It is filed as cell-based. The settings on record: 24 hours treatment, relative to vehicle control (DMSO). As for the experimental part:
HeLa cells were seeded in coated 96-well plates (10,000 cells) and allowed to adhere overnight. After 24 hours of treatment with either vehicle (DMSO) or test compounds, the media was discarded, and cells were rinsed with ice-cold 1×PBS before fixation by 4% formaldehyde or paraformaldehyde for 20 min. Cells were then washed with 1×PBS and permeabilized with 0.1% Triton X-100 in PBS for 20 min and blocked with Blocking Buffer in PBS for 1 hour. The cells were incubated thereafter for 1 hour with anti-p62 primary antibody in Blocking Buffer, followed by incubation with secondary antibody for 1 hour. DAPI dye was used to visualize nuclei of fixed cells. The blocking buffer used were 5% Fetal Bovine Serum (FBS, ThermoFIsher Scientific, 10270106) and Li-cor Intercept (PBS) Blocking Buffer (Li-cor, 927-70001). The primary antibody used was mouse anti-p62 primary antibody (Novus Biologicals, H00008878-M01). The secondary antibodies used were goat anti-mouse Alexa Fluor Plus 488 secondary antibody (Invitrogen, GOXMS) and goat anti-mouse Alexa Fluor 488 secondary antibody (Invitrogen, A-11029). The DAPI dyes used were DAPI dye (Invitrogen, 62248) and DAPI dye (Invitrogen, D1306).
For the EVOS M7000 System, cells were imaged on the EVOS M7000 microscope using a 20× air objective (Nikon, N.A 0.45). DAPI and p62 channels were illuminated with LED light cubes using integrated hard-coated filter sets for DAPI (357/447 nm) and GFP (470/525 nm) respectively. Images were analysed for p62 puncta count on the Celeste 6.0 software.
For the Operetta CLS System, cells were imaged on the Operetta CLS using a 63× water objective on the DAPI and Alexa 488 channels. Images were analysed for p62 puncta count on the Harmony 5.1 software.
HeLa cells were treated with compounds for 24 hours to evaluate the effect of these compounds on p62 puncta activity. The resulting changes in levels of p62 puncta were assessed by imaging, either on the EVOS M7000 or Operetta CLS systems as described in experimental procedures. The fold change of p62 puncta levels induced by compound treatment relative to vehicle control (DMSO) was determined and summarized in Table 10.
For the molecule `CC(C)(C)OC(=O)N1CCC(OCCNCc2cc(F)cc3c2ccn3Cc2ccc(Cl)cc2)C1` (centres unmarked) [Compound 166], the “p62 puncta (fold change of p62 puncta levels)” value is “++ (>2-fold change in p62 puncta levels relative to DMSO control)”.
`CC(C)(C)OC(=O)CCOCCOCCNCc1cc(F)cc2c1ccn2Cc1ccc(Cl)cc1` [Compound 138]: the “p62 puncta (fold change of p62 puncta levels)” value is “++ (>2-fold change in p62 puncta levels relative to DMSO control)”.
For the molecule `C#CCCN1CCC(OCCNCc2cc(F)cc3c2ccn3Cc2ccc(Cl)cc2)CC1` [Compound 119], the “p62 puncta (fold change of p62 puncta levels)” value is given as “++ (>2-fold change in p62 puncta levels relative to DMSO control)”.
Turning to `OCCNCc1ccc(Cl)c2c1ccn2Cc1ccc(F)cc1` [Compound 80], the “p62 puncta (fold change of p62 puncta levels)” value is “++ (>2-fold change in p62 puncta levels relative to DMSO control)”.
With `COC(=O)c1ccc(N2CCC(COCCNCc3cc(F)cc4c3ccn4Cc3ccc(Cl)cc3)CC2)cc1` [Compound 171] the entry was “++ (>2-fold change in p62 puncta levels relative to DMSO control)”.
Then `COCCNCc1cc(F)cc2c1ccn2Cc1ccc(Cl)cc1` [Compound 108], with “++ (>2-fold change in p62 puncta levels relative to DMSO control)”.
For `C#CCCOCCNCc1cc(F)cc2c1ccn2Cc1ccc(F)cc1` [Compound 125], the “p62 puncta (fold change of p62 puncta levels)” value was “+ (<2-fold change in p62 puncta levels relative to DMSO control)”.
On to `CC(C)(C)OC(=O)CCCOCCNCc1cc(F)cc2c1ccn2Cc1ccc(Cl)cc1` [Compound 154], for which the “p62 puncta (fold change of p62 puncta levels)” value is “++ (>2-fold change in p62 puncta levels relative to DMSO control)”.
Consider `COC1CN(Cc2cncc3c2ccn3Cc2ccc(F)cc2)C1` [Compound 114], for which the “p62 puncta (fold change of p62 puncta levels)” value is “+ (<2-fold change in p62 puncta levels relative to DMSO control)”.
As for `CC(C)(C)OC(=O)COCCCOCCNCc1cc(F)cc2c1ccn2Cc1ccc(Cl)cc1` [Compound 139], the “p62 puncta (fold change of p62 puncta levels)” value is given as “+ (<2-fold change in p62 puncta levels relative to DMSO control)”.
As for `OCCNCc1cncc2c1ccn2Cc1ccc(F)cc1` [Compound 113], the “p62 puncta (fold change of p62 puncta levels)” value is listed as “+ (<2-fold change in p62 puncta levels relative to DMSO control)”.
With `CC(C)(C)OC(=O)N1CCC(CCOCCNCc2cc(F)cc3c2ccn3Cc2ccc(Cl)cc2)CC1` [Compound 161] the entry was “++ (>2-fold change in p62 puncta levels relative to DMSO control)”.
Consider `C#CCCOCCOCCNCc1cc(F)cc2c1ccn2Cc1ccc(Cl)cc1` [Compound 86], for which the “p62 puncta (fold change of p62 puncta levels)” value is on record as “++ (>2-fold change in p62 puncta levels relative to DMSO control)”.
Regarding `CC(C)(C)OC(=O)Nc1ccc(COCCNCc2cc(F)cc3c2ccn3Cc2ccc(Cl)cc2)cc1` [Compound 160], the “p62 puncta (fold change of p62 puncta levels)” value was “++ (>2-fold change in p62 puncta levels relative to DMSO control)”.
Turning to `CC(C)(C)OC(=O)NCCOCCOCCOCCNCc1cc(F)cc2c1ccn2Cc1ccc(Cl)cc1` [Compound 136], the “p62 puncta (fold change of p62 puncta levels)” value is given as “++ (>2-fold change in p62 puncta levels relative to DMSO control)”.
As to `C#CCCCCCOCCNCc1cc(F)cc2c1ccn2Cc1ccc(Cl)cc1` [Compound 148], the “p62 puncta (fold change of p62 puncta levels)” value is reported as “+ (<2-fold change in p62 puncta levels relative to DMSO control)”.
As to `CNCCOCc1cc(F)cc2c1ccn2Cc1ccc(Cl)cc1` [Compound 178], the “p62 puncta (fold change of p62 puncta levels)” value is listed as “++ (>2-fold change in p62 puncta levels relative to DMSO control)”.
With `Fc1cc(CNCCOCCCCl)c2ccn(Cc3ccc(Cl)cc3)c2c1` [Compound 146], the “p62 puncta (fold change of p62 puncta levels)” value is given as “++ (>2-fold change in p62 puncta levels relative to DMSO control)”.
`C#CCCOCCOCCOCCNCc1cccc2c1ccn2CCc1cccnc1` [Compound 126]: the “p62 puncta (fold change of p62 puncta levels)” value is “+ (<2-fold change in p62 puncta levels relative to DMSO control)”.
On to `CNCCOCc1cccc2c1ccn2Cc1ccc(F)cc1` [Compound 77], for which the “p62 puncta (fold change of p62 puncta levels)” value is reported as “++ (>2-fold change in p62 puncta levels relative to DMSO control)”.
For `CC(C)(C)OC(=O)N1CC(OCCNCc2cc(F)cc3c2ccn3Cc2ccc(Cl)cc2)C1` [Compound 167], the “p62 puncta (fold change of p62 puncta levels)” value is given as “++ (>2-fold change in p62 puncta levels relative to DMSO control)”.
For `COC(=O)CCOCCOCCNCc1cc(F)cc2c1ccn2Cc1ccc(Cl)cc1` [Compound 88], the “p62 puncta (fold change of p62 puncta levels)” value is on record as “+ (<2-fold change in p62 puncta levels relative to DMSO control)”.
As to `COC(=O)c1ccc(COCCNCc2cc(F)cc3c2ccn3Cc2ccc(Cl)cc2)cc1` [Compound 144], the “p62 puncta (fold change of p62 puncta levels)” value was “+ (<2-fold change in p62 puncta levels relative to DMSO control)”.
For the molecule `C#CCCCCCCOCCNCc1cc(F)cc2c1ccn2Cc1ccc(Cl)cc1` [Compound 151], the “p62 puncta (fold change of p62 puncta levels)” value was “+ (<2-fold change in p62 puncta levels relative to DMSO control)”.
For `CC(C)(C)OC(=O)N1CCC(COCCNCc2cc(F)cc3c2ccn3Cc2ccc(Cl)cc2)CC1` [Compound 134], the “p62 puncta (fold change of p62 puncta levels)” value was “++ (>2-fold change in p62 puncta levels relative to DMSO control)”.
For the molecule `CC(C)(C)OC(=O)NC1(COCCNCc2cc(F)cc3c2ccn3Cc2ccc(Cl)cc2)CC1` [Compound 165], the “p62 puncta (fold change of p62 puncta levels)” value was “++ (>2-fold change in p62 puncta levels relative to DMSO control)”.
Take `COC(=O)c1cccc(COCCNCc2cc(F)cc3c2ccn3Cc2ccc(Cl)cc2)c1` [Compound 145]: the “p62 puncta (fold change of p62 puncta levels)” value is “+ (<2-fold change in p62 puncta levels relative to DMSO control)”.
For `COC(=O)c1ccc(OCCOCCNCc2cc(F)cc3c2ccn3Cc2ccc(Cl)cc2)cc1` [Compound 168], the “p62 puncta (fold change of p62 puncta levels)” value is recorded as “++ (>2-fold change in p62 puncta levels relative to DMSO control)”.
On to `C#CCCOCCOCCOCCNCc1cc(F)cc2c1ccn2Cc1ccc(Cl)cc1` [Compound 87, 2-(2-(2-(but-3-yn-1-yloxy)ethoxy)ethoxy)-N-((1-(4-chlorobenzyl)-6-fluoro-1H-indol-4-yl)methyl)ethan-1-amine], for which the “p62 puncta (fold change of p62 puncta levels)” value was “++ (>2-fold change in p62 puncta levels relative to DMSO control)”.
As to `CC(C)(C)OC(=O)NCCCCCCOCCNCc1cc(F)cc2c1ccn2Cc1ccc(Cl)cc1` [Compound 159], the “p62 puncta (fold change of p62 puncta levels)” value is reported as “++ (>2-fold change in p62 puncta levels relative to DMSO control)”.
Consider `C#CCCOCCOCCOCCNCc1cc(F)cc2c1ccn2Cc1ccc(F)cc1` [Compound 123], for which the “p62 puncta (fold change of p62 puncta levels)” value is listed as “++ (>2-fold change in p62 puncta levels relative to DMSO control)”.
In the case of `Cc1cn(Cc2ccc(F)cc2)c2cc(F)cc(CNCCO)c12` [Compound 81], the “p62 puncta (fold change of p62 puncta levels)” value is on record as “++ (>2-fold change in p62 puncta levels relative to DMSO control)”.
Regarding `COCCN1CCC(OCCNCc2cc(F)cc3c2ccn3Cc2ccc(Cl)cc2)CC1` [Compound 130], the “p62 puncta (fold change of p62 puncta levels)” value is listed as “++ (>2-fold change in p62 puncta levels relative to DMSO control)”.
For `C#CCCCCCCCCOCCNCc1cc(F)cc2c1ccn2Cc1ccc(Cl)cc1` [Compound 170], the “p62 puncta (fold change of p62 puncta levels)” value is given as “++ (>2-fold change in p62 puncta levels relative to DMSO control)”.
Consider `CC(C)(C)OC(=O)NCC1CC(COCCNCc2cc(F)cc3c2ccn3Cc2ccc(Cl)cc2)C1` (centres unmarked) [Compound 172], for which the “p62 puncta (fold change of p62 puncta levels)” value is “++ (>2-fold change in p62 puncta levels relative to DMSO control)”.

For the origin of these results see patent US20250243160A1, “INDOLE DERIVATIVES FOR TARGETING AUTOPHAGY” (Automera PTE. LTD, priority 2024, published 2025).
